Like-named read-outs stand apart in the source and are kept apart here.
Legend:
[1] = tested on: fibrin-induced microglia activation; test: Image-based assay of fibrin-induced microglia activation (HTS and dose response); assay type: cell-based, rat; details: Rattus norvegicus, Microglia
[2] = tested on: LPS-induced microglia activation; test: Image-based assay of LPS-induced microglia activation (HTS and dose response); assay type: cell-based, rat; details: Rattus norvegicus, Microglia
[3] = tested on: fibrin- and LPS-induced microglia activation; test: cells; assay type: cell-based, rat; details: for inhibition at 10 µM: Rattus norvegicus, Microglia
primary rat microglia [4] = details: rat
primary rat microglia [5] = details: rat; remark: listed apart in the source
in vitro [6] = details: rat, Cell Toxicity IC50 (uM) [cFib assay]
in vitro [7] = details: rat
primary rat microglia [8] = test: Cell toxicity (dead cells, size <150 μm2) in LPS assay; details: read-out: Cell Toxicity IC50 (uM) [LPS assay]; LPS assay
mouse BMDMs = test: ROS production (DHE) in fibrin-stimulated mouse BMDMs; assay type: cell-based; details: fibrin 24 h, 5 μM inhibitor, FIG. 6b
Protocol: Bone marrow—derived macrophage cultures. […]. In brief, bone-marrow cells were isolated from tibia and femur of C57BL/6 mice, Ggt1^+/+ mice or Ggt1^dwg/dwg mice and cultured in RPMI-1640 medium supplemented with 10% FBS, 1% penicillin-streptomycin (Corning), and 10 ng/ml murine M-CSF (14-8983-80, Thermo Fisher Scientific). On days 6-7, adherent BMDMs were harvested by adding PBS with 5 mM EDTA to the plates and used for assays.
Human macrophage cultures. Human peripheral blood mononuclear cells (PBMCs) were purchased from AllCells, LLC (Alameda, Calif.). To differentiate PBMC into monocyte-derived macrophages, 2×10^6 PBMC/mL were plated in RPMI-1640 media supplemented with 10% FBS, 1% penicillin-streptomycin (Corning), and 50 ng/ml human M-CSF (300-25, Peprotech) in tissue-culture treated dishes (Corning). After 24 h, non-adherent cells were removed, and adherent cells were cultivated for 7-8 additional days at 37° C. in 5% CO2 to promote their full differentiation into macrophages. Oxidant detection with DHE. Intracellular concentrations of ROS were measured using dihydroethidium (DHE) as described (9). […] The DHE fluorescence was detected at an excitation/emission wavelength of 518 nm/605 nm using a SpectraMax M5 microplate reader (Molecular Devices) with SoftMax Pro 5.2 software (Phoenix Technologies Ltd.).

human macrophages = test: ROS production (DHE) in fibrin-stimulated human macrophages; assay type: cell-based; details: fibrin 24 h, 5 μM inhibitor, FIG. 6b
Protocol: Human macrophage cultures. Human peripheral blood mononuclear cells (PBMCs) were purchased from AllCells, LLC (Alameda, Calif.). To differentiate PBMC into monocyte-derived macrophages, 2×10^6 PBMC/mL were plated in RPMI-1640 media supplemented with 10% FBS, 1% penicillin-streptomycin (Corning), and 50 ng/ml human M-CSF (300-25, Peprotech) in tissue-culture treated dishes (Corning). After 24 h, non-adherent cells were removed, and adherent cells were cultivated for 7-8 additional days at 37° C. in 5% CO2 to promote their full differentiation into macrophages. Oxidant detection with DHE. Intracellular concentrations of ROS were measured using dihydroethidium (DHE) as described (9). Cultured BMDMs or human macrophages were incubated in medium containing 5 μM DHE (Invitrogen) for 30 min Cells were plated on 96-well, black μ-clear-bottom microtiter plates (Greiner Bio-One) pre-coated with 25 μg/ml fibrin. For GGT inhibition, BMDMs or human macrophages were pre-incubated with 5 μM acivicin or GGsTop for 1 h, and the cells were plated on fibrin-coated 96-well plates as described above. PBS was used as vehicle control. Cells were then incubated for 24-48 h and fixed with 4% PFA for 10 min. The DHE fluorescence was detected at an excitation/emission wavelength of 518 nm/605 nm using a SpectraMax M5 microplate reader (Molecular Devices) with SoftMax Pro 5.2 software (Phoenix Technologies Ltd.).

GGT = biological target: T1, GGT (Mus musculus, UniProt Q60928); test: GGT activity assay in fibrin-stimulated BMDMs (enzymatic kit, ProteoGREEN-gGlu probe); assay type: cell-based; details: FIG. 6c, FIG. 13A, B
T1 construct: GGT activity in BMDMs left unstimulated or stimulated with fibrin after acivicin or vehicle control treatment; endogenous in cells; host or cells: mouse bone marrow-derived macrophages (BMDMs), fibrin-stimulated
T1 sequence (Q60928 380-568): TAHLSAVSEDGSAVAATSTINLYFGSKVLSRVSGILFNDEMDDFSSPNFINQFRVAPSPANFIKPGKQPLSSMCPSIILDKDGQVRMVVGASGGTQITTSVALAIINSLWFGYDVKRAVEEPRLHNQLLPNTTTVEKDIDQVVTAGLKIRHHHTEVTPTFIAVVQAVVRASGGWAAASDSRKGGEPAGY
T1 sequence (Q60928 1-379): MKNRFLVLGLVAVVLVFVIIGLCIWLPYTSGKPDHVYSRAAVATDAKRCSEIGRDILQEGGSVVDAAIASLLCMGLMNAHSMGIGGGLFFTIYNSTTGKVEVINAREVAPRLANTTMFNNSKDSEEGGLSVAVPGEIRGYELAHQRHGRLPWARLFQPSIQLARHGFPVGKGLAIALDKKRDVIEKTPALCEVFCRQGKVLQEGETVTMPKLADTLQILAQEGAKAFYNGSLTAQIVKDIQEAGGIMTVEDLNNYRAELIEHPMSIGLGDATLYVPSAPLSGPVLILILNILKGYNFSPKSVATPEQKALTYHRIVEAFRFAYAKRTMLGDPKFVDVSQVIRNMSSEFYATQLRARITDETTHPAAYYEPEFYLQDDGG
Protocol: GGT activity assay. GGT activity was measured using the MaxDiscovery gamma-Glutamyl Transferase (GGT) Enzymatic Assay Kit (Bioo Scientific) according to the manufacturer's protocol. […]. For in vivo GGT activity assay, spinal cord tissues from the onset of MOG35-55 EAE or LPS-injected substantia nigra area at 12 h were prepared. Tissues were homogenized in 0.1 M Tris-HCl and centrifuged at 13,000 g for 30 min at 4° C. The supernatant was collected and subsequently assessed for GGT activity. The absorbance at 405 nm was detected with a SpectraMax M5 microplate reader (Molecular Devices) with SoftMax Pro 5.2 software (Phoenix Technologies Ltd.). The GGT activity in IU/1 was calculated following the manufacturer's protocol by multiplying the average increase in absorbance at 405 nm over 10 min GGT activity was also measured using a fluorescent probe, ProteoGREEN-gGlu (Goryo Chemical, Hokkaido, Japan), according to the manufacturer's protocol. Cultured BMDMs were plated on 96-well, black μ-clear-bottom microtiter plates (Greiner Bio-One) pre-coated with 25 μg/ml fibrin. […] The fluorescence intensity (excitation/emission filter pairs of 488 nm/520 nm) was measured using a SpectraMax M5 microplate reader (Molecular Devices) with SoftMax Pro 5.2 software (Phoenix Technologies).

intracellular GSH = assay type: cell-based, mouse
Protocol: Real-time imaging of glutathione. The real-time GSH dynamics in living BMDMs was determined with the fluorescent GSH probe, RealThiol RT-AM as described (37). Cells were plated on 2-well chamber slide (Nunc) pre-coated with 25 μg/ml fibrin. Cells were stimulated with fibrin with or without 5 μM acivicin or GGsTop. The GSH synthesis inhibitor, buthionine sulfoximine (BSO, Sigma-Aldrich) was used as positive control for reducing intracellular GSH levels at 100 μM. After 24 h incubation, cells were loaded with 1 μM RT-AM probe and were incubated for 5 min before imaging. The cells were kept at 37° C. during the entire experiment. […] For each independent experiment, laser power and detector settings were set using the control/untreated cells incubated with RT-AM alone as reference. All settings were kept constant throughout the experiment. […] The ratio calculated for each treatment was expressed as percentage from that of the untreated cells (control).

MOG35-55 EAE = test: Active MOG35-55 EAE, clinical scores; assay type: in vivo, mouse; details: prophylactic, 5 mg/kg i.p. daily from day 0, FIG. 14B
renal reperfusion injury = details: cited from earlier work
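Throughout, for Fibrin % cell toxicity: share of dead cells sized under 150 µm2 at 10 µM in fibrin-stimulated microglia HTS.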

## C[C@H]1C[C@@H]2[C@H]([C@@H](O)C[C@@]3(C)[C@H]2CC[C@]3(O)C(=O)CO)[C@@]2(C)C=CC(=O)C=C12 [Methylprednisolone, reference compound]
[1]; 48 h, Table 1, dose response 0.001-20 μM, triplicates, primary rat microglia, 48 h, read-out: Fibrin IC50
  IC50: < 0.001 µM
[1]; Table 3, read-out: Fibrin IC50 (uM) (Suppl. Table 7)
  IC50: < 0.001 µM
[1]; Table 7, read-out: fib_IC50
  IC50: 0.003 µM
[1]; dose response, fibrin-induced microglia activation, read-out: Fibrin IC50
  IC50: < 0.001 µM
[1]; fibrin-induced microglia activation, dose response, read-out: Fibrin IC50 (uM) (Suppl. Table 7)
  IC50: < 0.001 µM
[1]; primary microglia HTS, fibrin stimulation, increased cell size (>800 μm^2) as marker of activation, read-out: Fibrin % inhibition
  inhibition at 10 µM: 110%
[2]; 48 h, Table 1, dose response 0.001-20 μM, triplicates, primary rat microglia, 48 h, read-out: LPS IC50
  IC50: 0.02 µM
[2]; 48 h, primary microglia HTS, LPS stimulation, increased cell size (>800 μm^2) as marker of activation, read-out: LPS % inhibition
  inhibition at 10 µM: 86%
[2]; LPS-induced microglia activation, dose response, read-out: LPS IC50 (uM) (Suppl. Table 7)
  IC50: 0.02 µM
[2]; Table 3, read-out: LPS IC50 (uM) (Suppl. Table 7)
  IC50: 0.02 µM
[2]; Table 7, read-out: LPS_IC50
  IC50: 0.002 µM
[2]; dose response, LPS-induced microglia activation, read-out: LPS IC50
  IC50: 0.02 µM
[3]; HTS of 1907 compounds, quadrant by fibrin and LPS inhibition
  Quadrant (FIG. 5b): Q2
[3]; Table 3, read-out: Cherry-picked Hit (Suppl. Table 7)
  inhibition at 10 µM: > 50%
[3]; HTS hit classification, read-out: Hit
  inhibition at 10 µM: > 50%
[3]; Table 1, screen at 10 μM
  Quadrant (FIG. 5b): Q2
[3]; Table 2, screen at 10 μM
  Quadrant (FIG. 5b): Q2
[3]; Table 3, screen at 10 μM
  Quadrant (FIG. 5b): Q2
[3]; quadrant by fibrin and LPS inhibition in HTS of 1907 compounds
  Quadrant (FIG. 5b): Q2
Primary rat microglia [4]
  Fibrin % cell toxicity: 3%
Primary rat microglia [5]
  LPS % cell toxicity: 2%
In vitro [6]; Table 3
  IC50: > 20 µM
In vitro [6]; cFib assay
  IC50: > 20 µM
In vitro [7]
  IC50: > 20000 nM
Primary rat microglia [8]
  IC50: > 20 µM

## COP(=O)(CCC(N)C(=O)O)Oc1cccc(CC(=O)O)c1 (centres unmarked) [GGsTop]
Mouse BMDMs
  ROS generation (DHE) in mouse macrophages: inhibited
Human macrophages
  ROS generation (DHE) in human macrophages: inhibited
GGT
  fibrin-induced GGT activity in BMDMs: inhibited
Intracellular GSH
  fibrin-induced degradation of glutathione (RealThiol F405/F488): inhibited
MOG35-55 EAE
  neurologic signs: reduced
Renal reperfusion injury
  oxidative stress markers: reduced
  renal reperfusion injury: protected

— patent US20210330611A1, “THERAPY FOR NEUROLOGICAL DISEASES/DISORDERS” (priority 2020, published 2021)
